According to patent US12325703B2, “Fused ring compound as FGFR and VEGFR dual inhibitor” (CGENETECH (SUZHOU, CHINA) CO., LTD., priority 2019, dated 2025):

Experiments:
[1] = biological target: T1, human FGFR1 (Homo sapiens, UniProt P11362); assay: 33P isotope-labeled kinase activity test (Reaction Biology Corp), FGFR1; assay type: biochemical; settings: 33P-ATP 5 μM, kinase 1.5 nM, 120 min room temperature
T1 construct: purchased Invitrogen PV3146
Protocol: (§1) The IC50 value was determined using ^33P isotope-labeled kinase activity test (Reaction Biology Corp) to evaluate the inhibitory ability of the compounds to be tested on human FGFR1, FGFR2 and VEGFR2.
(§2) Buffer conditions: 20 mM Hepes (pH 7.5), 10 mM MgCl2, 1 mM EGTA, 0.02% Brij35, 0.02 mg/mL BSA, 0.1 mM Na3VO4, 2 mM DTT, 1% DMSO.
(§3) Test steps: At room temperature, the compounds to be tested were dissolved in DMSO to prepare a 10 mM solution for use. The substrate was dissolved in the newly-prepared buffer, and the kinase to be tested was added thereto and mixed well. The DMSO solution in which the compounds to be tested were dissolved was added to the above-mentioned homogeneous reaction solution using acoustic technology (Echo 550). […] After incubating for 15 minutes, to the reaction solution was added ^33P-ATP (activity: 0.01 μCi/μL, with corresponding concentration listed in Table 10) to start the reaction. […] The kinase activity data was expressed by comparing the kinase activity of the groups containing the compounds to be tested with that of the blank group (containing only DMSO). The IC50 value was obtained by curve fitting using Prism4 software (GraphPad), and the experimental results were shown in Table 11.

[2] = Pharmacokinetic study in mice, cassette intravenous injection and intragastric administration; assay type: in vivo; settings: mouse, plasma, Balb/c female mice; for Vd / AUC(0-t) / clearance / half-life: IV 0.2 mg/kg; for Vd: read-out: Apparent volume of distribution Vdss; for AUC(0-t): read-out: Area under the plasma concentration-time curve from time zero to 24 hours AUC0-24 h; for clearance: read-out: Clearance rate CL; for half-life: read-out: Half-life T1/2 (converted); for bioavailability: PO 1 mg/kg vs IV 0.2 mg/kg, read-out: Bioavailability F; for AUC / Cmax / Tmax: PO 1 mg/kg; for AUC: read-out: Area under the plasma concentration-time curve AUC; for Cmax: read-out: Peak concentration Cmax; for Tmax: read-out: Time to peak Tmax
Protocol: To evaluate the pharmacokinetic behavior of the compounds of the present disclosure after Cassette intravenous injection and intragastric administration, and to investigate the bioavailability thereof after intragastric administration.
Balb/c female mice aged 7 to 10 weeks were selected, and administered intravenously and orally with the doses of 0.2 mg/kg and 1 mg/kg, respectively. The mice were fasted for at least 12 hours before administration, and feeding was resumed after 4 hours of administration. The mice were free to drink water during the entire experiment. In this experiment, Cassette administration was used, and with regard to the intravenous injection group: an appropriate amount of each compound was weighed, and mixed with 5% DMSO/10% Solutol/85% Water for vortexing to prepare a 0.1 mg/mL of clear solution; the clear solution was filtered with a microporous membrane for later use; and with regard to the intragastric administration group: an appropriate amount of each compound was weighted, and mixed with 90% (25% HP-β-CD/10% Cremophor EL) with pH being adjusted to 4 to 5 to prepare a homogeneous suspension for later use. On the day of the experiment, the animals in the intravenous injection group were administrated with the corresponding compounds via tail vein single injection, with the administration volume of 2 mL/kg; and the animals in the oral group were administrated with the corresponding compounds by single intragastric administration, with the administration volume of 10 mL/kg. The body weight of the animals was weighed before administration, and the administration volume was calculated based on the body weight. The sample collection time was: 0.083 (injection group) h, 0.25 h, 0.5 h, 1 h, 2 h, 4 h, 8 h, and 24 h. Approximately 30 uL of whole blood was collected from the saphenous vein at each time point to prepare plasma for high performance liquid chromatography-tandem mass spectrometry (LC-MS/MS) to determine the concentration. All animals were euthanized by CO2 anesthesia after PK samples at the last time point were collected. The non-compartmental model of WinNonlin™ Version 6.3 (Pharsight, Mountain View, CA) pharmacokinetic software was used to process the plasma concentration, and the pharmacokinetic parameters were calculated using the linear logarithmic trapezoidal method.

[3] = system: human gastric cancer SNU-16 cells expressing FGFR2; assay: Cell activity (proliferation) test of gastric cancer cell line SNU-16, CellTiter-Glo; assay type: cell-based; settings: inhibition of proliferation
Protocol: To test the inhibitory effect of the compounds on the proliferation of human gastric cancer SNU-16 cells expressing FGFR2.
The compounds used in the test were subjected to 3-fold concentration dilution, the concentration starting from 10 μM and subjected to […], resulting in 9 concentrations: 10 μM, 2.50 μM, 0.62 μM, 0.156 μM, 39.1 nM, 9.8 nM, 2.4 nM, 0.61 nM, and 0.15 nM.
(1) Promega CellTiter-Glo luminescent cell viability assay kit (Promega-G7573).
(2) 2104 EnVision multi-tag reader, PerkinElmer.
The inhibition rate of different doses of the compounds would be calculated in the Excel file, and the IC50 data was obtained by parametric curve fitting (GraphPad Software).

[4] = biological target: T2, hERG potassium ion channel (Homo sapiens, UniProt Q12809); assay: Inhibition test of hERG potassium ion channel, full-automatic patch clamp (Qpatch), CHO-hERG cells; assay type: cell-based; settings: highest test concentration 40 μM
T2 construct: expressed in transfected cells; host or cells: CHO-hERG cells
T2 sequence (Q12809 whole entry): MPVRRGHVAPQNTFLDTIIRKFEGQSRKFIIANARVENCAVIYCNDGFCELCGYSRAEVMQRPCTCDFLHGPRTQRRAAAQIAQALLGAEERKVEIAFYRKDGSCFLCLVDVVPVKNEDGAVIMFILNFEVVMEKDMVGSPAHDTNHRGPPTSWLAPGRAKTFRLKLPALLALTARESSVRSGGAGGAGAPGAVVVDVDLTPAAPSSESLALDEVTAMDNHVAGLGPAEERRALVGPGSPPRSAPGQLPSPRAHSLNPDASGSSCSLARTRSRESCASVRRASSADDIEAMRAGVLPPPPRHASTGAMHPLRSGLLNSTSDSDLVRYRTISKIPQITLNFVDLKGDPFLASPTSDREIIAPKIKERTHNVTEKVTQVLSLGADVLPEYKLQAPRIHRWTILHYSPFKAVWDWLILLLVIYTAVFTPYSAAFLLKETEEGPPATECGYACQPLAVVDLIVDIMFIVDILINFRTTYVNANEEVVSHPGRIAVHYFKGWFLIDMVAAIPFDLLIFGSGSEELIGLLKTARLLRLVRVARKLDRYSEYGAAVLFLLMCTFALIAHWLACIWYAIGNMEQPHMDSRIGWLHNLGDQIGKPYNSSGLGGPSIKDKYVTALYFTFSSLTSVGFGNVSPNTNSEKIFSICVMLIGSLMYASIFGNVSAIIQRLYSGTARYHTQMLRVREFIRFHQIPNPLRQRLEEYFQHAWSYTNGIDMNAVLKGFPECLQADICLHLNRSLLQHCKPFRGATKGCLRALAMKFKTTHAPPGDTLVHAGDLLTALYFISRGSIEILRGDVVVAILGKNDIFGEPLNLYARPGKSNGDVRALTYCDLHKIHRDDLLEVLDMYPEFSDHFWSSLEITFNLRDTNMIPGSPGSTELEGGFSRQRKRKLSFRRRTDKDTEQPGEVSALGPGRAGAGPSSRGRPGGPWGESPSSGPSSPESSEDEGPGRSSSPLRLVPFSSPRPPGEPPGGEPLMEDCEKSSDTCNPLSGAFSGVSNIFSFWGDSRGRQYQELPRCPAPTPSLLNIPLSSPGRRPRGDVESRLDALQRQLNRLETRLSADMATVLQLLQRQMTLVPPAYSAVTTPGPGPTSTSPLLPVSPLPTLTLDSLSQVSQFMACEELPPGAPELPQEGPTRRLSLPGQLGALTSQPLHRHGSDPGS
Protocol: To detect the effect of the compounds of the present disclosure to be tested on the hERG potassium ion channel using a full-automatic patch clamp method.
1.1 CHO-hERG cells were cultured in a 175 cm^2 culture bottle, and once the cells grow to a density of 60% to 80%, the culture solution was removed; and the cells were washed with 7 mL of PBS (Phosphate Buffered Saline), and then digested by adding 3 mL of Detachin.
1.2 After the digestion was complete, 7 mL of culture solution was added for neutralization, and the mixture was centrifuged; and the supernatant was pipetted out, and then 5 mL of culture solution was added for resuspension to ensure that the cells reached a density of 2 to 5×10^6/mL.
The single-cell high-impedance sealing and the whole-cell mode formation process were all automatically completed by the Qpatch instrument. After the whole-cell recording mode was obtained, the cells were clamped at −80 millivolt; before a 5 second +40 millivolt depolarization stimulus was given, a 50 millisecond −50 millivolt pre-voltage was given, then repolarized to −50 millivolt for 5 seconds, and then returned to −80 millivolt. Such a voltage stimulus was applied every 15 seconds and recorded for 2 minutes, and then extracellular fluid was given and recorded for 5 minutes, followed by drug administration. […]
The experimental data was analyzed by GraphPad Prism 5.0 software. […]

[5] = biological target: T3, human FGFR2 (Homo sapiens, UniProt P21802); assay: 33P isotope-labeled kinase activity test (Reaction Biology Corp), FGFR2; assay type: biochemical; settings: 33P-ATP 5 μM, kinase 0.45 nM, 120 min room temperature
T3 construct: purchased Invitrogen PV3368
T3 sequence (P21802 22-821): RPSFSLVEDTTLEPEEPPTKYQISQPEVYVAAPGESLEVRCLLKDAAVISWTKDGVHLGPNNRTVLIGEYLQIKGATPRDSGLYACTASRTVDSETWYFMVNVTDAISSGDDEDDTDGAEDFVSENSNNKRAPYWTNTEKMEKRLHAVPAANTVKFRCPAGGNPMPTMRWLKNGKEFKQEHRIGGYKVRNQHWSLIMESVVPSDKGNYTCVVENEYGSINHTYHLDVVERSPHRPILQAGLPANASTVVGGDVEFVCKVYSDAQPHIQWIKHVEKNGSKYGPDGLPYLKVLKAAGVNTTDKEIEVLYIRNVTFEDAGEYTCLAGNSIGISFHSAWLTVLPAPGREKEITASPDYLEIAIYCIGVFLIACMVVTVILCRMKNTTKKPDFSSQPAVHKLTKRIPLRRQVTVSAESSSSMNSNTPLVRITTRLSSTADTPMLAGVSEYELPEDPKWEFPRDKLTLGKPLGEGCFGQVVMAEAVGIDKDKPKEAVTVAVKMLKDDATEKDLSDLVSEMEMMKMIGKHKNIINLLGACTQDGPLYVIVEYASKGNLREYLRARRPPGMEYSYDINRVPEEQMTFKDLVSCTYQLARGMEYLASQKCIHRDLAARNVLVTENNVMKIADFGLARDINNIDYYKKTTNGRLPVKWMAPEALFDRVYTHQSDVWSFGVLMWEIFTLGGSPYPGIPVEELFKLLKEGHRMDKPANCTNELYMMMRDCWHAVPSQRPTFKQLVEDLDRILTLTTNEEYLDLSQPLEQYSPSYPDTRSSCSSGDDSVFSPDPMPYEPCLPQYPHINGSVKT
Protocol: as §1, §2, §3

[6] = system: human gastric cancer SNU-16 subcutaneous xenograft tumor; assay: Anti-tumor activity in mouse subcutaneous xenograft tumor model of human gastric cancer SNU-16; assay type: in vivo, nude mice; settings: day 25, SNU-16 xenograft
Protocol: To determine the anti-tumor effect of the compounds of the present disclosure in a mouse subcutaneous xenograft tumor model of human gastric cancer SNU-16
preparation of tumor tissues: SNU-16 cells were routinely cultured in an RPMI-1640 culture medium containing 10% fetal bovine serum under the conditions of 5% CO2, 37° C. and saturated humidity.
Each animal was inoculated with 200 μL (8×10^6 cells/mouse) to establish a SNU-16 xenograft model. The animal status was observed regularly, and the tumor diameter was measured with an electronic vernier caliper. The data was input into an Excel spreadsheet to calculate tumor volume and monitor tumor growth.
3) The tumor diameter was measured twice a week to calculate the tumor volume, and the animal body weight was weighted and recorded.
The calculation formula of tumor volume (TV) was: TV (mm^3)=1×w^2/2, where 1 represented the long diameter of the tumor (mm); w represented the short diameter of the tumor (mm).
The anti-tumor efficacy of the compounds was evaluated by TGI (%) or relative tumor proliferation rate T/C (%). […] The relative tumor volume (RTV) was calculated according to the results of the tumor measurement. The calculation formula was RTV=Vt/V0, where V0 was the tumor volume measured at the beginning of the grouping and administration (i.e., D0), and Vt was the tumor volume corresponding to a certain measurement in the mouse. […]

[7] = biological target: T4, human VEGFR2 (Homo sapiens, UniProt P35968); assay: 33P isotope-labeled kinase activity test (Reaction Biology Corp), VEGFR2; assay type: biochemical; settings: 33P-ATP 20 μM, kinase 1 nM, 120 min room temperature
T4 construct: purchased Invitrogen PR5992C
T4 sequence (P35968 20-1356): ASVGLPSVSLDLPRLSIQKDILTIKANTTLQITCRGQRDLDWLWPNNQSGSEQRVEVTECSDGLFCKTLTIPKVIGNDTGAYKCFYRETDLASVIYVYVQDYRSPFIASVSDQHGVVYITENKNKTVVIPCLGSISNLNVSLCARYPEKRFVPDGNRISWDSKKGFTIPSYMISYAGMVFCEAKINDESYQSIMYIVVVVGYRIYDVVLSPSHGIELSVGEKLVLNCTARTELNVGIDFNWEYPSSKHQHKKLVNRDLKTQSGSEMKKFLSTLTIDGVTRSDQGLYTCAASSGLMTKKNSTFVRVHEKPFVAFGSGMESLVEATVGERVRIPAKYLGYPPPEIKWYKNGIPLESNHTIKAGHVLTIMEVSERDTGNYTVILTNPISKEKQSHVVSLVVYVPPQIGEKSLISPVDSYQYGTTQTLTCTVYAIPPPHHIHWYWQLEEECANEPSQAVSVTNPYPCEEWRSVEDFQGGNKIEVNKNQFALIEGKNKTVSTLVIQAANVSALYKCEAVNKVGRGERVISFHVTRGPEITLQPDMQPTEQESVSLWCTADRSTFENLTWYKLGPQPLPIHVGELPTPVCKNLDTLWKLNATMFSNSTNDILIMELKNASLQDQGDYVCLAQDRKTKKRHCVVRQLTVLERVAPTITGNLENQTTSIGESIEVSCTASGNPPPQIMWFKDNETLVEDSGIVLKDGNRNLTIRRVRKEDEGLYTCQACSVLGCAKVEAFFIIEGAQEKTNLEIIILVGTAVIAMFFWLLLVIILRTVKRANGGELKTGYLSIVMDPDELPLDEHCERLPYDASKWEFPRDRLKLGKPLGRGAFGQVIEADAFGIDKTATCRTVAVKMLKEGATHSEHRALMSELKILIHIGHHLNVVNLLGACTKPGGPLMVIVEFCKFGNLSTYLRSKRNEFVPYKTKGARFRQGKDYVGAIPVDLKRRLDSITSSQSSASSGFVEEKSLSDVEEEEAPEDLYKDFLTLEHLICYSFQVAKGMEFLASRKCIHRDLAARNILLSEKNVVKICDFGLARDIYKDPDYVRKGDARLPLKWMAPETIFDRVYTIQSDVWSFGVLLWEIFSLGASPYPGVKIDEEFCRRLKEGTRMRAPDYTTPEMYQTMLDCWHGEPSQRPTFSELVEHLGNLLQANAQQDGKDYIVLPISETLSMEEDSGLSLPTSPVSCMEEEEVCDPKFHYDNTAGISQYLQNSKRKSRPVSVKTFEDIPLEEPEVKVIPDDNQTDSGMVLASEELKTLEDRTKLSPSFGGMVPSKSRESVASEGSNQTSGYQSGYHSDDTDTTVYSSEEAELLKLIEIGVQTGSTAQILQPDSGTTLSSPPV
Protocol: as §1, §2, §3

T1 sequence (P11362 22-822): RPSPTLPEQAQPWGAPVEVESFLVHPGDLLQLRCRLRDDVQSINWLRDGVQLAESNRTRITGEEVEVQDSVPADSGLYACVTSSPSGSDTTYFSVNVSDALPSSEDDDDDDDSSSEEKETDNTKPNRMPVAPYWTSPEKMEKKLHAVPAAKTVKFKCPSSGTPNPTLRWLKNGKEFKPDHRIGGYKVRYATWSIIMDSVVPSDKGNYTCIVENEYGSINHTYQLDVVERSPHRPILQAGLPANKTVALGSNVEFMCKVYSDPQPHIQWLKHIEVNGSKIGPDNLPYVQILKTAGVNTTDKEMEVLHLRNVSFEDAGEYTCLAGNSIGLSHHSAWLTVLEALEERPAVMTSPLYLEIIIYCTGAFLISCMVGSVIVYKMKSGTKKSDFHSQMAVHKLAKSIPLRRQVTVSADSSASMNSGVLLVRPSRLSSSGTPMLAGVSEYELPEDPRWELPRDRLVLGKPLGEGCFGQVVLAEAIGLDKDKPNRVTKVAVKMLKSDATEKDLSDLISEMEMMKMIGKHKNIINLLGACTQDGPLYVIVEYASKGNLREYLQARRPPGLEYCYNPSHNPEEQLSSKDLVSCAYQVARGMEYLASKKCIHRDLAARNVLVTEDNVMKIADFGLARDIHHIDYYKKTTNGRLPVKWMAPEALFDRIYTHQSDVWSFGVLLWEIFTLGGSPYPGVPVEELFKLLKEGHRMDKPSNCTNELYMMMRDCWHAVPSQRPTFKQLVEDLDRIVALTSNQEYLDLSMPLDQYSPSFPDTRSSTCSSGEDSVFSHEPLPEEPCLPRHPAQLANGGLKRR

SMILES | IC50 [1] | Vd [2] | AUC(0-t) [2] | clearance [2] | half-life [2] | bioavailability [2] | AUC [2] | Cmax [2] | Tmax [2] | IC50 [3] | IC50 [5] | IC50 [4] | TGI (%) (tumor growth inhibition rate) on day 25 ([6]; PO 10 mpk/QD) | TGI (%) (tumor growth inhibition rate) on day 25 ([6]; PO 20/30/20 mpk/QD (30 mg/kg/day from day 9, 20 mg/kg/day from day 12)) | IC50 [7]
CCS(=O)(=O)Nc1cc(-c2ccc(F)cc2F)cc(-c2cnn3cc(-c4cnn(C)c4)ccc23)c1 [Compound 2] | 2.86 nM | 1.2 L/kg | 1.14 µM·h | 6.53 mL/min/kg | 2.12 h | 43.8% | 1.98 µM·h | 388 nM | 2 h | 16.3 nM | 2.66 nM | > 40000 nM | 74% |  | 
Cn1cc(-c2cnc3c(-c4cc(NS(=O)(=O)C5CC5)cc(-c5ccc(F)cc5F)c4)cnn3c2)cn1 [Compound 5] | 9.34 nM |  |  |  |  |  |  |  |  |  |  | > 40000 nM |  |  | 
Cn1cc(-c2ccc3c(c2)ncn3-c2cc(NS(=O)(=O)C3CC3)cc(-c3ccc(F)cc3F)c2)cn1 [reference compound] | 22.2 nM |  |  |  |  |  |  |  |  |  | 29.9 nM |  |  |  | 27.2 nM

Further lines, with some results ahead:

IC50 [1] | Vd [2] | AUC(0-t) [2] | clearance [2] | half-life [2] | bioavailability [2] | AUC [2] | Cmax [2] | Tmax [2] | IC50 [3] | IC50 [5] | SMILES | IC50 [4] | TGI (%) (tumor growth inhibition rate) on day 25 ([6]; PO 10 mpk/QD) | TGI (%) (tumor growth inhibition rate) on day 25 ([6]; PO 20/30/20 mpk/QD (30 mg/kg/day from day 9, 20 mg/kg/day from day 12)) | IC50 [7]
6.29 nM | 1.25 L/kg | 0.751 µM·h | 8.53 mL/min/kg | 1.52 h | 74% | 2.48 µM·h | 540 nM | 2 h |  |  | Cn1cc(-c2ccc3c(-c4cc(NS(=O)(=O)C5CC5)cc(-c5ccc(F)cc5F)c4)cnn3c2)cn1 [Compound 1] |  |  |  | 
1.63 nM | 1.4 L/kg | 0.548 µM·h | 12.6 mL/min/kg | 1.17 h | 73.2% | 1.9 µM·h | 463 nM | 2 h | 14.5 nM | 2.5 nM | Cn1cc(-c2ccc3c(-c4cc(NS(C)(=O)=O)cc(-c5ccc(F)cc5F)c4)cnn3c2)cn1 [Compound 4] |  |  | 70% | 
